Test results from patent publication US20170216288A1, “IMMUNOPOTENTIATOR POTENTIATING TUMOR IMMUNITY OR INFECTION IMMUNITY” (priority 2014, published 2017).

Assays:
[1] = tested on: Melan-A-specific CD8+ T cells; experiment: Specific CD8+ T cell induction, malignant melanoma patient peripheral blood (tetramer); type: cell-based, human; settings: imatinib 5 uM, 1 day, then Melan-A 10 uM, 10 days; melanoma patients Pt1-Pt3
Method: (§1) […]. Initially, Gleevec (Novartis Pharma K.K.; […]. Subsequently, cancer antigen (Melan-A) was added at a concentration of 10 μM to stimulate the cells, and the cells were cultured at 37° C. for 10 days. After the culture, the number of effector Tregs was measured as in Test Example 1 above. In addition, after the culture, analysis with the tetramer was performed as in Test Example 6 above to examine specific CD8^+ T cell induction.

Ki-67+ Treg cells = experiment: Inhibitory action upon Treg cells in vivo, FACS of spleen cells of BALB/c mice; settings: 2 mg or 8 mg imatinib once a day for 1 week, orally or intraperitoneally
Method: The expression of Foxp3 and CD25 in CD4^+ T cells and the expression of Ki-67 and CD44 in CD4^+Foxp3^+ T cells were analyzed by FACS.

effector Tregs [2] = experiment: Effector Tregs after imatinib addition and Melan-A stimulation, malignant melanoma patient peripheral blood; type: cell-based, human; settings: imatinib 5 uM, 1 day, then Melan-A 10 uM, 10 days; melanoma patients Pt1-Pt3
Method: as §1

[3] = tested on: influenza virus-specific CD8+ T cells; experiment: Influenza virus-specific CD8+ T cell induction, healthy donor peripheral blood (tetramer); type: cell-based, human; settings: imatinib 5 uM, then influenza virus antigen peptide 10 uM
Method: Specifically, analysis on specific CD8^+ T cell induction was performed as in Test Example 6 above, except that instead of cytomegalovirus antigen, an influenza virus antigen peptide was added at a concentration of 10 μM to stimulate the cells, and that influenza-specific tetramer was used.

[4] = tested on: cytomegalovirus-specific CD8+ T cells; experiment: Cytomegalovirus-specific CD8+ T cell induction, healthy donor peripheral blood (tetramer); type: cell-based, human; settings: imatinib 5 uM, then cytomegalovirus antigen 10 uM, 10 days; healthy donor HD1
[5] = tested on: Tregs in the peripheral blood; experiment: Proportion of Tregs in peripheral blood of chronic myelogenous leukemia patients treated with Gleevec (FACS, CD45RA/FoxP3); type: in vivo, human; settings: peripheral blood after treatment
Method: Specifically, peripheral blood mononuclear cells in the peripheral blood were harvested, CD4^+ cells were gated using anti-CD4 antibody labeled with BD Horizon V500, and the cells were stained with FITC-labeled anti-CD45RA antibody and PE-labeled anti-FoxP3 antibody. Subsequently, CD45RA and FoxP3 expression levels were measured by FACS analysis. For comparison, the proportion of Tregs in the peripheral blood of a healthy donor was similarly measured.
In FIG. 1, fraction I (CD45RA^+FoxP3^low) represents naive Tregs, fraction II (CD45RA^−FoxP3^high) represents effector Tregs, and fraction III (CD45RA^−FoxP3^low) represents non-suppressive Tregs.

[6] = tested on: Melan A-specific CD8+ T cells; experiment: Melan-A-specific CD8+ T cell induction, healthy donor peripheral blood (tetramer); type: cell-based, human; settings: imatinib 5 uM, 1 day, then Melan-A 10 uM, 10 days; healthy donors
effector Tregs [7] = experiment: Effector Tregs after imatinib addition and antigen stimulation, healthy donor peripheral blood; type: cell-based, human; settings: imatinib 5 uM, 1 day, then antigen 10 uM, 10 days; healthy donors HD1-HD3
[8] = tested on: CD45RA-FoxP3high cells (fraction II: effector Tregs); experiment: Apoptosis of fractionated T cells cultured with imatinib (Annexin V and 7-AAD); type: cell-based, human; settings: effector Tregs of a healthy donor, cultured 5 days at 37 C
[9] = tested on: CD45RA-FoxP3high cells (fraction II: effector Tregs); experiment: Ki-67 expression in effector Tregs cultured in the presence of imatinib (FACS); type: cell-based, human; settings: imatinib 10 uM, cultured 4 days
Caspase 3/7 = Caspase 3/7 activation in T cell fractions cultured with imatinib under anti-CD3/anti-CD28 stimulation; type: cell-based, human; settings: imatinib 10 uM, 4 days, anti-CD3/anti-CD28 beads; effector Treg-specific
Method: […]; Novartis Pharma K.K.; […]. After the culture, the activation level of Caspase 3/7 in T cells of each fraction was measured using CellEvent Caspase 3/7 green and SYTOX AADvanced. […].
In FIG. 18, the vertical axis represents the proportion (%) of T cells having activated Caspase 3/7. […]

[10] = tested on: leukemic cells bearing Bcr-Abl gene; experiment: Molecular response of chronic myelogenous leukemia patients switched to nilotinib; settings: three patients in which CMR was not achieved by Gleevec
[11] = tested on: effector Tregs in the peripheral blood; experiment: Proportion of effector Tregs in peripheral blood of patients switched from Gleevec to nilotinib; type: in vivo, human; settings: three patients (Cases 1, 2 and 3), CMR state after switching to nilotinib
BCR-ABL = settings: cited from earlier work

SMILES	specific CD8+ T cell induction (immune responses against malignant melanoma) [1]	expression of Ki-67 and CD44 in CD4+Foxp3+ T cells of spleen (Ki-67+ Treg cells)	number of effector Tregs (effector Tregs [2])	influenza virus-specific CD8+ T cell induction [3]	cytomegalovirus-specific CD8+ T cell induction [4]	naive Tregs (fraction I) in CD4+ cells ([5]; CMR patients (49))	proportion of effector Tregs (fraction II) in CD4+ cells ([5]; CMR patients (49))	naive Tregs (fraction I) in CD4+ cells ([5]; Non-CMR patients (38))	proportion of effector Tregs (fraction II) in CD4+ cells ([5]; Non-CMR patients (38))	Melan-A-specific CD8+ T cell induction [6]	number of effector Tregs (effector Tregs [7])	proportion of apoptotic cells [8]	expression level of Ki-67 in effector Tregs [9]	proportion (%) of T cells having activated Caspase 3/7 (Caspase 3/7)	complete molecular response (CMR) [10]	proportion of effector Tregs in the peripheral blood [11]	affinity for BCR-ABL relative to imatinib (BCR-ABL)
Cc1ccc(NC(=O)c2ccc(CN3CCN(C)CC3)cc2)cc1Nc1nccc(-c2cccnc2)n1 [imatinib]	activation of immune responses against malignant melanoma	selectively inhibits Ki-67^+ Treg cells	induces a reduction in effector Tregs	potentiates the induction of influenza virus-specific CD8^+ T cells	potentiated the induction of cytomegalovirus-specific CD8^+ T cells	reduction in naive Tregs	significant reduction in the proportion of effector Tregs	no reduction in naive Tregs	no reduction in the proportion of effector Tregs	potentiation of Melan-A-specific CD8^+ T cell induction	induces a reduction in effector Tregs	increases the proportion of apoptotic cells	selectively reduced	activates Caspase 3/7			
Cc1cn(-c2cc(NC(=O)c3ccc(C)c(Nc4nccc(-c5cccnc5)n4)c3)cc(C(F)(F)F)c2)cn1 [nilotinib]															CMR was achieved	a reduction in effector Tregs was not observed	higher affinity for BCR-ABL than that of imatinib
